Among the data in a melting point compilation (Tetko et al.; mined from patent text by program, amines drawn as free bases though some values may be those of a salt) are melting point values, retold here.

Bounds are passed on as bounds.

As a reminder, the melting point is the temperature, or range, at which the solid turns liquid. In the case of `CC(=O)Nc1c(SC(F)(F)F)c(C#N)nn1-c1c(Cl)cc(C(F)(F)F)cc1Cl`, the melting point lay in the range of 217 to 218 °C.

With `Cc1cc2c(cc1-c1ccc(F)cc1)NC(=O)CC(c1cccc(-n3ccnc3)c1)=N2`, the melting point was 196 °C. The value for `C[C@@H]1CCN(C(=O)C(C)(C)C)[C@@H](C(=O)O)C1` was 87 to 90 °C; that for `c1ccc(-c2cn3c(n2)sc2cnccc23)cc1` was 183 to 185 °C; that for `Cc1cc(NC2=NCCN2CCNC(=O)Nc2ccc(C(=O)O)cc2)nc(C)n1` was 160 °C. `COc1ccc(-c2c(Cl)ncnc2NS(=O)(=O)c2ccc(OC)cc2)cc1` showed a melting point of 165 to 167 °C. The value for `COc1cc(OC)c(CSC(C)(C)CC(=O)O)c(OC)c1` was 103 to 105 °C. The value for `O=S(=O)(c1ccccc1)c1c[nH]c2ccc(CCN3CCN(Cc4ccccc4)CC3)cc12` was 150 to 153 °C.

`CONCc1nc2c(N)nc3cc(OCc4ccccc4)ccc3c2n1CC1CCOCC1` gave a melting point of 190 to 193 °C. The value for `BrCc1ccc(-c2ccc(CBr)cn2)nc1` was 188 °C; that for `O=C(N[C@@H](Cc1ccccc1)C(=O)COC(=O)N1CCC[C@H]1C(=O)O)c1ccccc1` was 55 to 65 °C; that for `NOCC(O)CN1CCOCC1` (stereo not drawn) was 83 to 85 °C.

The compound `Cc1cc(CC(O)CO)c(OCc2ccccc2)c2c1CCC2` (stereo not drawn) came in with a melting point of 77 to 80 °C.

For the compound `O=C(Nc1cccc2c1C(=O)c1c-2n[nH]c1C1CCN(C(=O)Oc2ccccc2)CC1)NN1CCOCC1`, the melting point lay in the range of 250 to 252 °C. For `O=Cc1ccc2c3c1ccc1cccc(c13)C2` the value was 209 to 212 °C; for `NCc1ccc(Nc2n[nH]c3ncnc(Nc4cccc(Cl)c4)c23)cc1`, 207 to 209 °C; for `Nc1nnc(-c2cc3c(Oc4ccc(Cl)cc4)cncc3s2)s1`, above 270 °C. The value for `COc1ccc(CN(CCN(C)CCCNC(=O)NCCCOc2cccc(CN3CCCCC3)c2)c2ccccn2)cc1` was 120 °C; that for `CNc1ccc(C23CC2C(=O)N(C)C3=O)cc1` (stereo not drawn) was 128 to 129 °C; that for `CCOC(=O)c1ncc2[nH]c3ccc(-n4cccc4)cc3c2c1C` was 214 to 217 °C. For `Cc1c(F)cccc1CC(=Cc1ccccc1)[N+](=O)[O-]` the value was 111 to 112 °C; for `N#Cc1nn(-c2c(Cl)cc(C(F)(F)F)cc2Cl)c(NCc2ccccn2)c1SC(F)F`, 117 to 120 °C.

On to `Cn1nc([N+](=O)[O-])nc1Br`, for which the melting point was 90.5 to 91.5 °C. The value for `N#Cc1ccc(-c2ccc(C(CCC(=O)O)=NO)cc2)cc1` was 157 to 159 °C; that for `C[C@H](NC(=O)CCC1CCC(=O)N1)C(=O)O` (stereo partly drawn) was 174 to 179 °C; that for `O=C(O)CN1C(=O)C(=Cc2c(-c3ccccc3)[nH]c3ccccc23)SC1=S` was 258 to 262 °C. As for `COc1ccc(CNc2nn(CC(=O)OC(C)(C)C)c(=O)c3ccc(C#N)cc23)cc1Cl`, the melting point is 174 to 175 °C. On to `COc1ccc2c(c1)C=Cn1c(nnc1S(C)=O)C2` (stereo not drawn), for which the melting point was 241 to 242 °C. For `O=C(O)c1cc(C(F)(F)F)cc([N+](=O)[O-])c1Cl` the value was 173 °C; for `CC(C)(Cc1ccccc1)C(NC(=O)c1cccnc1)Nc1c(Nc2cccnc2)c(=O)c1=O` (stereo not drawn), 220 to 222 °C. The value for `Cc1cc2c(cc1C)N(C)c1cscc1C(=O)N2CCN(C)C` was 119 to 120 °C; that for `Nc1ccc(-c2cc3[nH]c4ccc(O)cc4c3c3c2C(=O)NC3=O)cc1` was 256 to 258 °C; that for `BrCc1nsc2nc3ccccc3n12` was 242 to 244 °C. Take `CS(=O)(=O)c1nc2c([nH]1)N(Cc1ccc(Cl)cc1)C1NCCN1C2=O` (stereo not drawn): the melting point lay within 282 to 284 °C. The value for `CCCCc1nc2cccc(C(=O)OC)c2n1Cc1ccc(-c2c(C#N)cnc3ccccc23)cc1` was 103 to 104 °C; that for `COC(=O)c1ccc(NC(=N)Nc2nc(-c3ccccc3)cs2)cc1` was 189 to 191 °C; that for `CC(C)(C)COc1ccc(NC(=O)c2cccn2-c2ccc(F)cc2)cc1C#N` was 181 to 182 °C. The value for `CC(=O)OCC1=C(c2ccccc2)C(=O)N(C(C)(C)C(=O)Nc2cccc(C(F)(F)F)c2)CO1` was 76.5 to 77.5 °C. For `CC(=O)N1CCc2c(sc(C)c2CCN2CCC(c3noc4ccc(F)cc34)CC2)C1` the value was 167 to 172 °C; for `CN1C(=O)c2cccnc2N(CC(=O)OC(C)(C)C)c2ccccc21`, 64 to 65 °C; for `COC(=O)c1c(C(=O)OC)c(-c2ccc(OC)c(OC)c2)c2cc3c(cc2c1O)OCO3`, 158 to 159 °C. Regarding `C=CCn1ccnc1C(O)(c1ccccc1)c1ccc(Cl)cc1` (stereo not drawn), the melting point lay within 165 to 166 °C. `CCC1(C)OC(c2ccc(S(N)(=O)=O)cc2)=C(c2ccsc2)C1=O` (stereo not drawn) registered a melting point of 120 to 121 °C. Regarding `COc1cc2cc(CO)c(CO)c(-c3ccnc(N4CCC(O)c5ccccc54)c3)c2cc1OC` (stereo not drawn), the melting point lay in the range of 90 to 94 °C. For `COC(=O)c1ccc(CC(C)NCC(O)c2cccc(C(F)(F)F)c2)cc1` (stereo not drawn) the value was 73 to 88 °C; for `COc1ccc(S(C)(=O)=O)cc1N`, 174 to 178 °C; for `CC(Cn1nccn1)n1nnc2cc3c(=O)n(C(C)Cn4ncnn4)nnc3cc2c1=O` (stereo not drawn), 139 to 140 °C. For `CC(=O)SCC(C)NS(=O)(=O)c1c(C)cc(C)cc1C` (stereo not drawn) the value was 123 to 126 °C. The compound `O=C(O)CC(c1ccccc1)C(F)(F)F` (stereo not drawn) had a melting point of 72 °C. The value for `Cc1[nH]c(=O)c2c(ccc3nc(Nc4c(Cl)cccc4Cl)[nH]c32)c1C` was above 300 °C; that for `CCCCOc1ccc(F)cc1OCCN1C(=O)c2ccccc2C1=O` was 107 to 108 °C; that for `COc1ccc(-c2ccc3cc(C(=O)O)ccc3c2)cc1C12CC3CC(C)(CC(C)(C3)C1)C2` was 258 to 263 °C. On to `CCCSCC(=O)NNC(=O)N1Cc2ccccc2Oc2ccc(Cl)cc21`, for which the melting point lay within 78 to 81 °C. The value for `CSC(=CC(=O)c1cccc(C(F)(F)F)c1)SC` was 89.5 °C; that for `CCOC(=O)c1cc2cc(C)c(C(F)(F)F)cc2[nH]1` was 176 to 178 °C; that for `CCCC(=O)c1cnc2c(OC)cccc2c1Nc1ccc(OC(=O)C(C)C)cc1C` was 123 to 125 °C. `CCN(CC)C(=O)n1cnc(Sc2c(C)cc(C)c(C)c2OC)n1` showed a melting point of 138 to 139 °C. The value for `COc1ccc(C2=CCN(Cc3c[nH]c4ncccc34)CC2)cc1` was 202 to 204 °C; that for `CC(=O)C1CCC2C3CCC4CC(O)C(N5CC(C)(C)OC(C)(C)C5)CC4(C)C3C(=O)CC12C` (stereo not drawn) was 212 to 215 °C; that for `CC(C)(C)[N+]([O-])=Cc1cc(Cl)ccc1O` was 143 °C. As for `CON=C(C#N)C(=O)Nc1ccc(OC(F)C(F)(F)F)cc1` (stereo not drawn), the melting point is 109 to 110 °C. The value for `COc1cc(S(C)=O)ccc1-c1nc2ccc(C(C)(C)CNS(C)(=O)=O)cc2[nH]1` (stereo not drawn) was 126 to 128 °C; that for `COC(=O)C(OC)c1ccc2nc(-c3ccc(Cl)cc3)oc2c1` (stereo not drawn) was 131 to 132 °C; that for `CCCOCCOc1ccc(-c2ccc3c(c2)C=C(C(=O)O)CCN3CCCOCC)cc1` was 98 to 100 °C. The compound `CS(=O)(=O)N(CCc1ccccc1)CC(O)(Cn1cncn1)c1ccc(Cl)cc1Cl` (stereo not drawn) displayed a melting point of 138 to 140 °C. For the compound `OCC1OC(n2c(I)nc3cc(Cl)c(Cl)cc32)C(O)C1O` (stereo not drawn), the melting point lay in the range of 180 to 182 °C. `Cc1cc(-c2c(Cl)ccc(C(=O)c3cnn(C)c3O)c2Cl)on1` yielded a melting point of 143 to 144 °C. The value for `O=C(C=c1sc2n(c1=O)Cc1ccccc1N=2)Oc1ccccc1` was 194 to 195 °C; that for `Cn1c(=O)sc2cc(N3C[C@H](C(=O)NCCF)OC3=O)ccc21` was 201 to 203 °C; that for `COc1ccc(CCc2cc(OC)c(OC)c(OC)c2)cc1` was 73 to 75 °C.

With `Cc1cc(C)cc(C(=O)Cc2ccnc(NC(=O)OC(C)(C)C)c2)c1`, the melting point lay within 133 to 136 °C. The value for `Cc1ccc2c(c1)Oc1ncc(N)cc1C(=O)N2C` was 191 to 193 °C; that for `O=C(O)CSc1nccn1Cc1cc(F)cc(F)c1` was 101 to 103 °C. For `Cc1c2c(c(Br)c(C(C)C)c1OCc1ccccc1)OC(C)(C)C2` the value was 156 °C; for `Cc1cc(COc2ccc(C(=O)NC[C@](O)(C(N)=O)N3CCN(Cc4ccccc4)CC3)cc2)c2ccccc2n1`, 169 °C; for `CC(C)=CCNc1ncnc2nc(NCCN)[nH]c12`, 96 to 102 °C. Take `CCOC(=O)N1CCC(NC(=S)Nc2cc(Cl)ccc2NCc2ccccc2)CC1`: the melting point worked out at 162 °C. `COC(=O)C(NS(=O)(=O)c1ccc(-c2ccc(NC(=O)c3oc4cccc(C)c4c3C)cc2)cc1)C(C)C` (stereo not drawn) yielded a melting point of 199 to 200 °C. The value for `O=c1[nH]c2ccc(C3=NOC(CN4CCC(O)(Cc5ccc(F)cc5)CC4)C3)cc2o1` (stereo not drawn) was 195 to 204 °C; that for `COc1nc2ncnc(NCC=C(C)C)c2[nH]1` was 205 to 210 °C; that for `CCOC(=O)c1cnc2c(c1O)CCCCCCCCCC2` was 182 to 190 °C. The value for `CC1=CC(O)C(OC(=O)c2nc[nH]c2C)C(C)(C)CC1=O` (stereo not drawn) was 201 to 202 °C.

`CCCc1ccc(CCc2ccc(-c3ccc(F)cc3)cc2)cc1` registered a melting point of 97 °C.

Take `CCCCN(C(C)=O)C1NC(=O)N(c2cccc(C(F)(F)F)c2)C(=O)N1`: the melting point was in the range of 146 to 148 °C. For `O=C(O)CC(Br)C(Br)c1ccc(-c2ccccc2)cc1` (stereo not drawn) the value was 200 to 203 °C; for `COC(=O)Nc1nc(C)c(-c2nc3ccccc3c(=O)n2-c2ccc(C(C)=O)cc2)s1`, 232 to 234 °C; for `COC(=O)Cc1ccc(CNC(=O)C2Cc3ccccc3N2S(=O)(=O)c2ccc(-c3cccc(C(F)(F)F)c3)cc2)cc1C` (stereo not drawn), 60 to 67 °C. The value for `O=C1CN(Cc2ccccc2)c2cc(-c3cccc(Cl)c3)ccc2N1` was 182 to 185 °C.
